Experimental data: patent publication US5574006A, “Nasally administrable peptide compositions on hydroxyapatite carriers” (Dott Research Laboratory, priority 1993, dated 1996)

How the values were obtained:
[1] = set-up: species or system healthy male adults; conditions: in vivo
Description: A nasally administrable composition in powdery form was prepared by formulating salmon calcitonin as a physiologically active peptide at the rate of 200 MRC (IU) per 25 mg with hydroxyapatite as a carrier.
(§1) The resulting composition was nasally administered once at the dose of 25 mg to six healthy male adults and the blood (2.5 ml) was collected from each of the tested adults prior to administration and then at 5, 10, 15, 20, 30, 45, 60, 90, 120 and 180 minutes after administration. The concentration of the salmon calcitonin in each of the collected blood samples was assayed with a standard RIA assay kit.

[2] = set-up: species or system healthy male adults; conditions: in vivo; remark: listed apart in the source
Description: A nasally administrable composition in powdery form was prepared by formulating salmon calcitonin as a physiologically active peptide at the rate of 200 MRC (IU) per 25 mg with hydroxyapatite as a carrier having a mean particle size ranging from 40 to 45 μm.
as §1

[3] = test system: blood sugar; test: Average fall of the blood sugar in rabbits after insulin administration; format: in vivo, New Zealand rabbits; conditions: S.C., 2 IU/rabbit
Description: The resulting composition was nasally administered once to six male New Zealand rabbits. The average fall of the blood sugar was measured and represented in percentage (%) at 0, 15, 30, 60, 120 and 180 minutes after administration. For comparison, 2 (IU)/rabbit of insulin was administered subcutaneously to six male New Zealand rabbits and the average fall of the blood sugar was measured and represented in […] (%) at 0, 60, 120, 240 and 360 minutes after administration.

Substance	absorption of calcitonin through the nasal cavity (in words) [1]	absorption of calcitonin (in words) [2]	Average fall of the blood sugar ([3]; 0 min) [%]	Average fall of the blood sugar ([3]; 60 min) [%]	Average fall of the blood sugar ([3]; 120 min) [%]	Average fall of the blood sugar ([3]; 240 min) [%]	Average fall of the blood sugar ([3]; 360 min) [%]
hydroxyapatite	effective to attain better absorption of calcitonin through the nasal cavity	effective to attain better absorption of calcitonin	–	–	–	–	–
insulin [Comparison]	–	–	100	57	56	84	94
